We go through eight molecules from US12053442B2, “Methods and compositions for neuroprotection” (The Feinstein Institutes for Medical Research, priority 2020, dated 2024).

The test system of one data set is control and CA rats. In words: Cocktail development trials to assess survival benefit (Table 9). Type of data set: in vivo, rat. The note with it: reason for removal from the cocktail. The protocol:
Our goal was to provide the most benefit with the least number of agents in a single concoction. […] This information can aid in selecting agents that can be appropriately and practically combined. […] Each drug, individually and in various combinations, was administered to normal rats (n=3) to determine any potential adverse effects, such as immediate death.

The nature of data set [1]: Solubility in water during cocktail formulation. Type of data set: physicochemical. The note with it: formulation NWH-1.
Data set [2] in a line: ESI-MS evaluation of active cocktail components (stability, molecular interaction). The note with it: ESI-MS after ethyl acetate extraction (FIG. 6). Type of data set: physicochemical. The protocol: Then the molecular mass of the extracted components was analyzed by electrospray ionization mass spectrometry (ESI-MS) (FIG. 6). […] Then the preparation was centrifuged at 10 000 g for 2 min at room temperature. The top layer (ethyl acetate) was then separated and transferred to a new vial. Another […] ethyl acetate was added into the bottom layer, and the extraction was repeated. The combined organic phase was dried with nitrogen gas. The residue was reconstituted in 500 μL methanol, vortexed for 10 s, and centrifuged at 13 000 g for 2 min. The final extract was transferred into a polypropylene vial. Then 30 μL of the final extract was injected and analyzed on a LTQ XL™ Linear Ion Trap Mass Spectrometer (Thermo Fisher Scientific, Waltham, MA), and the data was analyzed using Xcalibur 3.1 (Thermo Fisher Scientific, Waltham, MA).

As to `Nc1ncnc2c1ncn2[C@@H]1O[C@H](COP(=O)([O-])OP(=O)(O)OP(=O)(O)O)[C@@H](O)[C@H]1O.[Cl-].[Mg+2]` [ATP-magnesium chloride, adenosine triphosphate-magnesium chloride], in the data set with control and CA rats, the “Adverse effect seen in preliminary trials” value is on record as “hypotensive effect”. Turning to `COC1=C(OC)C(=O)C(C/C=C(\C)CC/C=C(\C)CC/C=C(\C)CC/C=C(\C)CC/C=C(\C)CC/C=C(\C)CC/C=C(\C)CC/C=C(\C)CC/C=C(\C)CCC=C(C)C)=C(C)C1=O` [CoQ10, Coenzyme Q10], the Solubility in water entry in data set [1] is on record as “insoluble in”.

As to `CC(=O)N[C@@H](CS)C(=O)O` [N-acetyl cysteine], the “Stability of drug in the final cocktail formulation by mass spectra” value (“Stability of drug” for short) in data set [2] is “intact and stable”. On to `CC1=NN(c2ccccc2)C(=O)C1` [edaravone, Edaravone], for which the “Stability of drug” value in data set [2] was “intact and stable”. In the case of `CN(C)C(=N)N=C(N)N` [metformin, Metformin], the “Stability of drug” value in data set [2] was “intact and stable”. For the molecule `C/C(=C(\CCOC(=O)C(C)C)SS/C(CCOC(=O)C(C)C)=C(/C)N(C=O)Cc1cnc(C)nc1N)N(C=O)Cc1cnc(C)nc1N` [sulbutiamine, Sulbutiamine], the Solubility in water result in data set [1] is on record as “insoluble in”.

For the molecule `O=C1O[C@H]([C@@H](O)CO)C(O)=C1O` [vitamin C, ascorbic acid], the “Stability of drug” value in data set [2] was “intact and stable”. For the molecule `N=C(N)NC(=O)c1cnn(-c2cccc3ncccc23)c1C1CC1` [zoniporide, Zoniporide], in data set [2], the “Stability of drug” value is “intact and stable”.
